The source made the active and inactive calls. No rule for the calls is given here.

The test system of the experiment is MT1-MMP promoter luciferase reporter cells, luminescence. Put plainly: MT1-MMP gene expression reporter suppression – cell-based, luciferase reporter, luminescence (AID 618;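 also: actives suppress MT1-MMP promoter-driven transcription so potencies describe inhibitors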). (In general: In a reporter assay the amount or activity of a reporter protein is the signal.)
The EC50 is the concentration at which the effect is half-maximal. With `CCCC(=O)Nc1ccc(-c2nc3cc(C)ccc3o2)cc1`, the EC50 is 12 µM.

For the molecule `Cc1ccc(-c2nc3cc(N)ccc3o2)c(C)c1`, the EC50 is 2.68 µM.

Take `Cc1nc2cc(-c3cccc(F)c3)nn2c(C)c1CCC(=O)NC(C)CCc1ccco1` (stereo unspecified): the half-maximal effective concentration (EC50) is 1.12 µM.

For the molecule `c1ccc(-c2cn3nc4c(nc3n2)CCCC4)cc1`, the EC50 was 0.54 µM.

In the case of `CCCOc1ccc(-c2nnc(-c3cccs3)o2)cc1`, the half-maximal effective concentration (EC50) was 4.37 µM.

In the case of `COCCn1c(C)cc(C(=O)CSc2nnc3ccccn23)c1C`, the concentration for a half-maximal effect (EC50) was 3.63 µM.

Consider `Cc1cc(C(=O)COC(=O)c2n[nH]c3ccccc23)c(C)n1C`, for which the concentration for a half-maximal effect (EC50) is 7.21 µM.

For `CCN(CC)c1ccc2cc(-c3nc4ccccc4[nH]3)c(=O)oc2c1`, the EC50 is 1.06 µM.

On to `Cc1ccc(-n2nc3ccc(N)cc3n2)cc1`, for which the EC50 was 13.6 µM.

Take `CCOc1ccc(NC(=O)c2cnsn2)cc1`: the EC50 was 8.78 µM.

On to `Cc1ccccc1C(=O)N/N=C/c1ccc([N+](=O)[O-])s1`, for which the EC50 is 25.5 µM.

For the molecule `Oc1cccc(-c2nc3ccccc3s2)c1`, the EC50 was 2.99 µM.

In the case of `Cc1cc(N)n2nc(-c3ccccc3)cc2n1`, the EC50 was 34.4 µM.

With `CCOC(=O)/C(=C\c1ccccc1)C(=O)c1cc(C(C)=O)c(Nc2ccccc2)s1`, the EC50 was 14.4 µM.

For the molecule `Cc1ccc(-c2nc3cc(C)ccc3o2)cc1`, the EC50 is 2.32 µM.

In the case of `CC(C)Nc1ncnc2c1cnn2-c1ccc(Cl)cc1`, the EC50 was 3.85 µM.

For `COc1ccc(-n2ncc3c(NC(C)C)ncnc32)cc1`, the EC50 is 5.36 µM.

For the molecule `Cc1ccc2nc(NC(=O)c3ccco3)sc2c1`, the EC50 was 1 µM.

For the molecule `Cc1oncc1C(=O)Nc1ccc(C(F)(F)F)cc1`, the EC50 was 5.65 µM.

As for `COc1cc([N+](=O)[O-])ccc1N/C=C/C(=O)c1cccs1`, the EC50 is 2.05 µM.

Regarding `O=c1c2c(nc3cc(-c4ccc(F)cc4)[nH]n13)CCCC2`, the EC50 is 6.48 µM.

Consider `Cc1c(C(=O)NCC2CCCO2)oc2ccc3c(c12)C(=O)CC(C)(C)O3` (stereo unspecified), for which the EC50 was 12.5 µM.

On to `COc1ccc(-c2cc3nc(C)cc(N)n3n2)cc1`, for which the EC50 was 1.73 µM.

In the case of `CCc1nnc(NC(=O)c2ccc(OC)cc2OC)s1`, the EC50 is 6.08 µM.

As for `Cc1ccc(C(=O)Nc2cnc3ccccc3c2)cc1`, the EC50 is 0.2 µM.

As for `Cc1cc(C)c2c(N)c(C(=O)Nc3nccs3)sc2n1`, the EC50 is 1.32 µM.

With `Cc1cccc(C(=O)N2CCN(C(=O)c3cccc(C)c3)C(C)C2)c1` (stereo unspecified), the EC50 was > 50 µM (inactive).

On to `O=C(c1cc(-c2cccc(O)c2)on1)N1CCCCC1`, for which the EC50 is 6.35 µM.

As for `Clc1ccc(-c2nnc(N3CCCC3)nn2)cc1`, the EC50 was 6.38 µM.

For the molecule `CCCCCN=Cc1c(C)[nH]n(-c2nc3ccccc3s2)c1=O`, the concentration giving a half-maximal response (EC50) was 6.14 µM.

Regarding `Clc1cccc(-c2nnc(-c3ccccc3)o2)c1`, the EC50 was 7.03 µM.

Consider `CC(C)CNC(=O)c1coc(=O)c(Br)c1`, for which the EC50 was 18.5 µM.

In the case of `Clc1ccccc1OCc1nc(-c2ccccn2)no1`, the EC50 is 6.65 µM.

Regarding `O=C(Nc1ccc(N2CCCCC2)cc1)c1ccccc1`, the EC50 is 3.57 µM.

Regarding `Cc1cc(C(=O)CN2C(=O)c3ccccc3S2(=O)=O)c(C)n1CC1CCCO1` (stereo unspecified), the EC50 is 0.11 µM.

With `CCOc1ccc(C(=O)NCCc2ccccc2)cc1`, the EC50 was 2.56 µM.

`Nc1ccc2oc(-c3ccc4nc[nH]c4c3)nc2c1`: the EC50 was 4.29 µM.

On to `COCCn1c(C)cc(C2=NNC(=Nc3ccccc3)SC2)c1C`, for which the EC50 was 5.3 µM.

As for `CCCc1cc(C(=O)Nc2nccs2)cs1`, the EC50 was 12.7 µM.

Take `Cc1csc(NC(=O)C2COc3ccccc3O2)n1` (stereo unspecified): the EC50 is 1.64 µM.

For the molecule `Cc1ccsc1/C=C1\CCc2ccccc2C1=O`, the half-maximal effective concentration (EC50) is 3.09 µM.

In the case of `Cc1c(NC(=O)c2coc(=O)c(Br)c2)c(=O)n(-c2ccccc2)n1C`, the EC50 is 13.1 µM.

With `Nc1ccc(-c2nc3ccc(N)cc3o2)cc1`, the EC50 is 14 µM.

As for `Cc1ccc(-c2nc(N/N=C/c3ccncc3)c3ccccc3n2)cc1`, the EC50 is 0.57 µM.

For `Cc1ccc(NC(=O)c2ccc3c(c2)OCCO3)cc1`, the EC50 was 1.71 µM.

For `C=CCNc1nc(-c2ccccn2)nnc1-c1ccccc1`, the concentration for a half-maximal effect (EC50) was 15.2 µM.

As for `Oc1c(CN2CCc3ccccc3C2)cc(Cl)c2cccnc12`, the EC50 was 5.81 µM.

For `COc1ccc(NC(=O)c2cc3ccccn3n2)cc1`, the EC50 is 4.38 µM.

`O=C(COc1ccc(CO)cc1Cl)Nc1ccc(F)cc1`: the EC50 is 3.02 µM.

As for `Cc1cc(C(=O)CSc2nc3ccccc3[nH]2)c(C)n1CC1CCCO1` (stereo unspecified), the EC50 was 3.86 µM.

`Cc1ccoc1C(=O)Nc1ccc(CC(=O)O)cc1`: the EC50 is 0.42 µM.

On to `O=C1c2ccccc2C(=O)C1c1ccnc2ccccc12`, for which the concentration for a half-maximal effect (EC50) is 1.02 µM.

As for `Cc1ccc(C(=O)COC(=O)c2cccs2)cc1`, the EC50 was 18.6 µM.

For the molecule `O=C(O)CSCC(=O)Nc1ccc(C2CCCCC2)cc1`, the EC50 was 0.58 µM.

For the molecule `CC1CCN(c2nc3ccc(C(=O)O)cc3s2)CC1`, the concentration giving a half-maximal response (EC50) is 0.35 µM.

With `Cn1ccnc1SCc1cn2cc(Br)ccc2n1`, the EC50 is 15 µM.

On to `Cc1cc(/C=N/n2cnnc2)c(C)n1-c1ccc(OCc2ccc(Cl)cc2Cl)cc1`, for which the EC50 is 9.47 µM.

Consider `CCOc1ccc(OCc2ccc(C(=O)OCc3ccccn3)o2)cc1`, for which the half-maximal effective concentration (EC50) was 3.05 µM.

`CN1/C(=C\C=C\C2=[N+](C)c3ccc4ccccc4c3C2(C)C)C(C)(C)c2ccccc21`: the EC50 was 4.71 µM.

With `O=C(O)CCSc1nnc(-c2ccc3c(c2)OCO3)o1`, the EC50 was 29.7 µM.

As for `CCOc1ccc(-c2cc(CCCC(=O)NCCCOC)no2)cc1`, the EC50 was 8.32 µM.

For the molecule `COC(=O)c1nn(-c2ccc(-c3ccccc3)cc2)cc1O`, the EC50 is 1.48 µM.

In the case of `COc1ccc(O)c(C(=O)CC(=O)c2ccccc2)c1`, the concentration for a half-maximal effect (EC50) is 2.22 µM.

For the molecule `c1ccc(-c2cnc(-c3ccccc3)nc2)cc1`, the EC50 is 3.74 µM.

Turning to `CC(=O)Nc1ccc2oc(-c3cc(F)c(F)cc3Cl)nc2c1`, the EC50 was 3.48 µM.

As for `CC(=O)c1sc(NC(=O)C2COc3ccccc3O2)nc1C` (stereo unspecified), the half-maximal effective concentration (EC50) is 5.39 µM.

With `Fc1ccc(-c2nnc(-c3ccc(Cl)cc3Cl)o2)cc1`, the EC50 is 8.19 µM.

`O=C(c1cccc(COc2ccc(Cl)cc2Cl)c1)N1CCN(c2ccccn2)CC1`: the EC50 was 12.6 µM.

Consider `CCOc1ccc2nc(NC(=O)c3ccoc3C)sc2c1`, for which the EC50 was 0.97 µM.

Regarding `c1ccc(C2=NNC(=NC3CC3)SC2)cc1`, the concentration giving a half-maximal response (EC50) is 1.7 µM.

As for `Nc1ccc2nc(-c3ccccc3)sc2c1`, the EC50 was 1.91 µM.

With `CC(C)(C)c1ccc(-c2nc(-c3ccncc3)no2)cc1`, the EC50 is 6.13 µM.

Consider `CC(C)C(=O)Nc1ccc(-c2nc3cccnc3o2)cc1`, for which the EC50 is 6.05 µM.

For the molecule `COCCn1c(C)cc(C2=NNC(=Nc3ccccc3F)SC2)c1C`, the 50% effective concentration (EC50) is 3.04 µM.

On to `COC(=O)c1ccc(-c2nc3cc(N)ccc3o2)cc1`, for which the EC50 was 3.09 µM.

Take `CC(C)(C)c1ccc(C(=O)N2CCCCCC2=O)cc1`: the EC50 is 12.8 µM.

Take `O=C1C(Cl)=C(N2CCCCC2)C(=O)C(Cl)=C1c1cnc(N2CCCCC2)s1`: the EC50 was 4.53 µM.

Turning to `CCOC(=O)CNC(=O)CSc1ncnc2c1cnn2-c1ccc(C)cc1`, the EC50 is 28 µM.

On to `Cc1oc(-c2ccc3c(c2)OCCO3)cc1C(=O)O`, for which the EC50 is 2.94 µM.

On to `CCOc1ccc(-c2nnc(-c3ccco3)o2)cc1`, for which the EC50 is 1.42 µM.

With `CC(C)c1ccc2oc(-c3ccc(N)cc3)nc2c1`, the EC50 was 1.66 µM.

Source of the values: PubChem BioAssay AID618 (Sanford-Burnham Center for Chemical Genomics, 2007).
